Measurements: patent US8178535B2, “Substituted sulfonamide compounds having bradykinin 1 receptor activity and use thereof as medicaments” (Gruenenthal GmbH, priority 2008, dated 2012)

Assays:
[1] = target: T1, human B1R receptor (hB1R) (Homo sapiens, UniProt P46663); test: FLIPR Ca2+ assay (Fluo-4) on CHO K1 cells stably transfected with the human B1R gene; type: cell-based; conditions: CHO-K1; test substance 10 μM; agonist Lys-Des-Arg9-bradykinin 0.5 nM; % inhibition compared to the maximum achievable inhibition
T1 construct: host or cells: CHO K1 cells
T1 sequence (P46663 1-353): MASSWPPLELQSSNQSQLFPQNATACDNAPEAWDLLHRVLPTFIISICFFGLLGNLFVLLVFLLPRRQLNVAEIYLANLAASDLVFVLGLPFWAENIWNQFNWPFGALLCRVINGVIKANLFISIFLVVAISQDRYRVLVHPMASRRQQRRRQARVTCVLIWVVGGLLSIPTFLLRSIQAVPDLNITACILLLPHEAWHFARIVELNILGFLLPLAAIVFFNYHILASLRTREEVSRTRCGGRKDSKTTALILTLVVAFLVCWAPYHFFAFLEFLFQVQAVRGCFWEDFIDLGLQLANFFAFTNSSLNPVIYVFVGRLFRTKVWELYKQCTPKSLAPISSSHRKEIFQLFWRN
Procedure, shortened: (§1)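 CHO K1 cells stably expressing human or rat B1R, Fluo-4 loaded, read by FLIPR (Ex 488/Em 540, peak fluorescence). Compound at 10 μM gives % activation vs agonist. After 10 min, agonist added (human: Lys-Des-Arg9-bradykinin 0.5 nM; rat: Des-Arg9-bradykinin 100 nM); % inhibition relative to maximal achievable inhibition.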

[2] = target: T2, B1R receptor of rats (rB1R) (Rattus norvegicus, UniProt P97583); test: FLIPR Ca2+ assay (Fluo-4) on CHO K1 cells stably transfected with the B1R gene of rats; type: cell-based; conditions: CHO-K1; test substance 10 μM; agonist Des-Arg9-bradykinin 100 nM; % inhibition compared to the maximum achievable inhibition
T2 construct: host or cells: CHO K1 cells
T2 sequence (P97583 1-337): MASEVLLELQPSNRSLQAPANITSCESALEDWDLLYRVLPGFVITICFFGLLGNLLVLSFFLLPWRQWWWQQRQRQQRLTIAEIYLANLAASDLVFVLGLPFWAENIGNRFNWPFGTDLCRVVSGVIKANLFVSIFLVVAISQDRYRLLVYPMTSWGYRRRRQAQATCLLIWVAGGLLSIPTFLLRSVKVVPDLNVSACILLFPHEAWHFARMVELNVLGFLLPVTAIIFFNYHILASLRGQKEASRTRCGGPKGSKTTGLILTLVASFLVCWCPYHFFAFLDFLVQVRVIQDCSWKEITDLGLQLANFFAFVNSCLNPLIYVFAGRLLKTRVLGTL
Procedure, shortened: as §1

| SMILES | inhibition at 10 µM [1] | inhibition at 10 µM [2] |
| --- | --- | --- |
| O=C(CC1CCCCN1S(=O)(=O)c1cccc(C(F)(F)F)c1)N1CCn2c(CCc3cccnc3)ccc2C1 (centres unmarked) [(98), 1-(6-(2-(Pyridin-3-yl)ethyl)-3,4-dihydropyrrolo[1,2-a]pyrazin-2(1H)-yl)-2-(1-(3-(trifluoromethyl)phenylsulfonyl)piperidin-2-yl)ethanone] | 90% | 90% |
| COc1cc(C)c(S(=O)(=O)N2CCCCC2CCC(=O)N2CCn3c(Cc4ccncc4)ccc3C2)c(C)c1 (centres unmarked) [(99), 3-(1-(4-Methoxy-2,6-dimethylphenylsulfonyl)piperidin-2-yl)-1-(6-(pyridin-4-ylmethyl)-3,4-dihydropyrrolo[1,2-a]pyrazin-2(1H)-yl)propan-1-one] | 72% | 102% |
| COc1cc(C)c(S(=O)(=O)N2CCCCC2CCCC(=O)N2CCn3cc(-c4ccncc4)nc3C2)c(C)c1 (centres unmarked) [(100), 4-(1-(4-Methoxy-2,6-dimethylphenylsulfonyl)piperidin-2-yl)-1-(2-(pyridin-4-yl)-5,6-dihydroimidazo[1,2-a]pyrazin-7(8H)-yl)butan-1-one] | 85% | 101% |
| COc1cc(C)c(S(=O)(=O)N2CCCCC2COCC(=O)N2CCn3c(CCc4cccnc4)ccc3C2)c(C)c1 (centres unmarked) [(101), 2-((1-(4-Methoxy-2,6-dimethylphenylsulfonyl)piperidin-2-yl)methoxy)-1-(6-(2-(pyridin-3-yl)ethyl)-3,4-dihydropyrrolo[1,2-a]pyrazin-2(1H)-yl)ethanone] | 100% | 98% |
| COc1cc(C)c(S(=O)(=O)N2CCCCC2CCC(=O)N2CCn3c(CCc4cccnc4)ccc3C2)c(C)c1 (centres unmarked) [(102), 3-(1-(4-Methoxy-2,6-dimethylphenylsulfonyl)piperidin-2-yl)-1-(6-(2-(pyridin-3-yl)ethyl)-3,4-dihydropyrrolo[1,2-a]pyrazin-2(1H)-yl)propan-1-one] | 86% | 101% |
| COc1cc(C)c(S(=O)(=O)N2CCCCC2CCCC(=O)N2CCn3c(CCc4cccnc4)ccc3C2)c(C)c1 (centres unmarked) [(103), 4-(1-(4-Methoxy-2,6-dimethylphenylsulfonyl)piperidin-2-yl)-1-(6-(2-(pyridin-3-yl)ethyl)-3,4-dihydropyrrolo[1,2-a]pyrazin-2(1H)-yl)butan-1-one] | 95% | 100% |
| O=C(CC1CCCCN1S(=O)(=O)c1cccc(C(F)(F)F)c1)N1CCn2cc(-c3ccncc3)nc2C1 (centres unmarked) [(104), 1-(2-(Pyridin-4-yl)-5,6-dihydroimidazo[1,2-a]pyrazin-7(8H)-yl)-2-(1-(3-(trifluoromethyl)phenylsulfonyl)piperidin-2-yl)ethanone] | 43% | 49% |
| COc1cc(C)c(S(=O)(=O)N2CCCCC2CCCC(=O)N2CCn3c(Cc4cccnc4)ccc3C2)c(C)c1 (centres unmarked) [(105), 4-(1-(4-Methoxy-2,6-dimethylphenylsulfonyl)piperidin-2-yl)-1-(6-(pyridin-3-ylmethyl)-3,4-dihydropyrrolo[1,2-a]pyrazin-2(1H)-yl)butan-1-one] | 64% | 103% |
| COc1cc(C)c(S(=O)(=O)N2CCCCC2COCC(=O)N2CCn3c(CCc4ccncc4)ccc3C2)c(C)c1 (centres unmarked) [(106), 2-((1-(4-Methoxy-2,6-dimethylphenylsulfonyl)piperidin-2-yl)methoxy)-1-(6-(2-(pyridin-4-yl)ethyl)-3,4-dihydropyrrolo[1,2-a]pyrazin-2(1H)-yl)ethanone] | 99% | 99% |
| O=C(CC1CCCCN1S(=O)(=O)c1cccc(C(F)(F)F)c1)N1CCn2c(CCc3ccncc3)ccc2C1 (centres unmarked) [(107), 1-(6-(2-(Pyridin-4-yl)ethyl)-3,4-dihydropyrrolo[1,2-a]pyrazin-2(1H)-yl)-2-(1-(3-(trifluoromethyl)phenylsulfonyl)piperidin-2-yl)ethanone] | 26% | 75% |
| COc1cc(C)c(S(=O)(=O)N2CCCCC2CCC(=O)N2CCn3c(CCc4ccncc4)ccc3C2)c(C)c1 (centres unmarked) [(108), 3-(1-(4-Methoxy-2,6-dimethylphenylsulfonyl)piperidin-2-yl)-1-(6-(2-(pyridin-4-yl)ethyl)-3,4-dihydropyrrolo[1,2-a]pyrazin-2(1H)-yl)propan-1-one] | 92% | 99% |
| COc1cc(C)c(S(=O)(=O)N2CCCCC2CCCC(=O)N2CCn3c(CCc4ccncc4)ccc3C2)c(C)c1 (centres unmarked) [(109), 4-(1-(4-Methoxy-2,6-dimethylphenylsulfonyl)piperidin-2-yl)-1-(6-(2-(pyridin-4-yl)ethyl)-3,4-dihydropyrrolo[1,2-a]pyrazin-2(1H)-yl)butan-1-one] | 95% | 99% |
| COc1cc(C)c(S(=O)(=O)N2CCCCC2CCCC(=O)N2CCn3c(ccc3-c3ccncc3)C2)c(C)c1 (centres unmarked) [(110), 4-(1-(4-Methoxy-2,6-dimethylphenylsulfonyl)piperidin-2-yl)-1-(6-(pyridin-4-yl)-3,4-dihydropyrrolo[1,2-a]pyrazin-2(1H)-yl)butan-1-one] | 84% | 101% |
| COc1cc(C)c(S(=O)(=O)N2CCCCC2COCC(=O)N2CCn3c(Cc4cccnc4)ccc3C2)c(C)c1 (centres unmarked) [(111), 2-((1-(4-Methoxy-2,6-dimethylphenylsulfonyl)piperidin-2-yl)methoxy)-1-(6-(pyridin-3-ylmethyl)-3,4-dihydropyrrolo[1,2-a]pyrazin-2(1H)-yl)ethanone] | 100% | 98% |
| COc1cc(C)c(S(=O)(=O)N2CCCCC2COCC(=O)N2CCn3cc(-c4ccncc4)nc3C2)c(C)c1 (centres unmarked) [(112), 2-((1-(4-Methoxy-2,6-dimethylphenylsulfonyl)piperidin-2-yl)methoxy)-1-(2-(pyridin-4-yl)-5,6-dihydroimidazo[1,2-a]pyrazin-7(8H)-yl)ethanone] | 100% | 101% |
| COc1cc(C)c(S(=O)(=O)N2CCCCC2CCC(=O)N2CCn3c(Cc4cccnc4)ccc3C2)c(C)c1 (centres unmarked) [(113), 3-(1-(4-Methoxy-2,6-dimethylphenylsulfonyl)piperidin-2-yl)-1-(6-(pyridin-3-ylmethyl)-3,4-dihydropyrrolo[1,2-a]pyrazin-2(1H)-yl)propan-1-one] | 97% | 100% |
| COc1cc(C)c(S(=O)(=O)N2CCCCC2CCC(=O)N2CCn3cc(-c4ccncc4)nc3C2)c(C)c1 (centres unmarked) [(114), 3-(1-(4-Methoxy-2,6-dimethylphenylsulfonyl)piperidin-2-yl)-1-(2-(pyridin-4-yl)-5,6-dihydroimidazo[1,2-a]pyrazin-7(8H)-yl)propan-1-one] | 79% | 98% |
| COc1cc(C)c(S(=O)(=O)N2CCCCC2COCC(=O)N2CCn3cc(CCc4ccncc4)nc3C2)c(C)c1 (centres unmarked) [(115), 2-((1-(4-Methoxy-2,6-dimethylphenylsulfonyl)piperidin-2-yl)methoxy)-1-(2-(2-(pyridin-4-yl)ethyl)-5,6-dihydroimidazo[1,2-a]pyrazin-7(8H)-yl)ethanone] | 100% | 98% |
| O=C(CC1CCCCN1S(=O)(=O)c1cccc(C(F)(F)F)c1)N1CCn2cc(CCc3ccncc3)nc2C1 (centres unmarked) [(116), 1-(2-(2-(pyridin-4-yl)ethyl)-5,6-dihydroimidazo[1,2-a]pyrazin-7(8H)-yl)-2-(1-(3-(trifluoromethyl)phenylsulfonyl)piperidin-2-yl)ethanone] | 78% | 102% |
| COc1cc(C)c(S(=O)(=O)N2CCCCC2CCC(=O)N2CCn3cc(CCc4ccncc4)nc3C2)c(C)c1 (centres unmarked) [(117), 3-(1-(4-Methoxy-2,6-dimethylphenylsulfonyl)piperidin-2-yl)-1-(2-(2-(pyridin-4-yl)ethyl)-5,6-dihydroimidazo[1,2-a]pyrazin-7(8H)-yl)propan-1-one] | 82% | 98% |
| COc1cc(C)c(S(=O)(=O)N2CCCCC2CCCC(=O)N2CCn3cc(CCc4ccncc4)nc3C2)c(C)c1 (centres unmarked) [(118), 4-(1-(4-Methoxy-2,6-dimethylphenylsulfonyl)piperidin-2-yl)-1-(2-(2-(pyridin-4-yl)ethyl)-5,6-dihydroimidazo[1,2-a]pyrazin-7(8H)-yl)butan-1-one] | 98% | 102% |
| COc1cc(C)c(S(=O)(=O)N2CCCCC2CCCC(=O)N2CCn3cc(Cc4ccncc4)nc3C2)c(C)c1 (centres unmarked) [(119), 4-(1-(4-Methoxy-2,6-dimethylphenylsulfonyl)piperidin-2-yl)-1-(2-(pyridin-4-ylmethyl)-5,6-dihydroimidazo[1,2-a]pyrazin-7(8H)-yl)butan-1-one] | 90% | 107% |
